According to patent US10131635B2, “Compositions and methods of using the compositions for plaque softening” (ALUMEND, LLC, priority 2013, dated 2018):
“Also recorded” adds a separate entry of the source.

Key:
[1] = tested on: hard and soft plaque of common and lower femoral artery; assay: Tissue immersion: hardness of plaque by manipulation with a forcep; design: species or system human; conditions: PBS pH 7.4
From the text: A sample of human tissue from the common and lower femoral artery was received. It was stored in saline and refrigerated until use. Based upon visual and tactile observations, the arteries were approximately 7-8 mm in diameter and contained evidence of both hard and soft plaque. The soft plaque has a yellow fatty appearance that is distinguishable from the vessel wall. The hard plaque presents itself as hard pieces of material that can be pulled (with a forceps) from the soft plaque. Sections of the artery suitable for catheter work were segregated and stored in phosphate buffered saline (PBS), pH=7.4. From the remaining arterial sections, pieces of tissue containing both hard and soft plaque were removed. These pieces were either placed in a solution of PBS (pH=7.4), or dimeric naphthalimide, such as a compound of formula (V) (which is in PBS, pH=7.4). Prior to immersion in either solution the relative hardness of the plaque was evaluated via manual manipulation with a forcep. After a 5 minute soak in solution (typical exposure time), no difference in the samples soaked in PBS was noticed (control). […] The samples were then left in their respective solutions for an additional 90 minutes.

[2] = tested on: artery; assay: Artery treated with composition, angioplasty and photoactivation: fissure observation; design: species or system human
Procedure: The tissue was an artery approximately 7.4 mm in diameter. An Ultra-thin SDS 8 mm×30 mm catheter was used to dilate the artery to 7.55 mm (approximately a 2% overstretch). A fissure or a possible dissection running down the length of the tissue sample was observed.
A section (6.5 cm in length) of artery was exposed to the composition for 5 minutes. An 80 mm catheter was used to impart a 25% overstretch to the artery. The angioplasty was followed by photoactivation at 1800 mW for 60 seconds using the same 80 mm catheter with a 60 mm light fiber centered in the catheter.
A catheter with an 80 mm treatment zone balloon was used however the photoactivating light fiber was only 60 mm in length. During activation it was noted that the light fiber was shifted distally in the catheter. This meant that the distal end of the artery was receiving photoactivation, however, the proximal end received little or no light. A fissure down the length of the artery was again observed.

[3] = Storage stability of the naphthalimide dimer (solution and powder); type: physicochemical
From the text: A preparative HPLC approach was used to isolate and specifically purify the compound of formula (V) dimer from the compound of formula (V) naphthalimide product produced from the ethanol crystallization. The HPLC method used was based on the purity method outlined above; however, method modifications were made to replace acetonitrile with ethanol and TFA with acetic acid in the mobile phase. The preparative separation utilized a C18 column (X-bridge, 10 μm, 19×250 mm, Waters). The mobile phase consisted of mobile phase A, 0.1% acetic acid (aq), and mobile phase B, 9:1 ethanol:water (0.1% v/v acetic acid). The column was pre-equilibrated at a starting mobile phase of 95% A:5% B for 20 minutes, at the start of the gradient was a 2 minute hold followed by a linear gradient to 90% B at 40 minutes and a 10 minute hold. An injection volume of 8.5 mL (12 mg/mL purified compound of formula (V)) and flow rate of 8.5 mL/minute were used as well as a detector wavelength of 440 nm. The compound of formula (V) fractions were collected and analyzed using the analytical purity method presented above. Fractions meeting a minimum purity criterion were combined and the solvent driven off by rotovapping the solution to dryness. […] Finally the product was quantitatively transferred from the round bottom flask to a freeze drying flask by dissolving the product in a minimal amount of deionized water. […]

[4] = tested on: plaque in diseased arteries from limb amputations; assay: Plaque penetration: diseased arteries soaked with composition, balloon and light activation, visual and histological examination; design: species or system human; conditions: 2 mg/mL in PBS pH 7.4, 5 minute soak
Procedure: Diseased arteries were obtained from limb amputations (leg) due to advanced Periperal Arterial Disease (PAD) from patients at a regional hospital. The received arteries were evaluated and chosen such that the diseased section was of reasonable size to accommodate the treatment catheter balloon length being used. The catheter balloon diameter used was also matched to the diameter of the artery and capable of achieving a 1:1.25 (ratio of artery diameter to balloon diameter) overstretch. The artery was laid in a petri dish and an angioplasty balloon was inserted and inflated for 60 seconds to impart the desired overstretch. While the angioplasty balloon was inflated a permanent marker was used to define the treatment zone (where the overstretch was imparted by the balloon) on the outer surface of the artery. The angioplasty balloon was deflated and removed. The inner lumen of the diseased artery was exposed to a plaque softening composition comprising a compound of formula (V) naphthalimide formulation (2 mg/mL in phosphate buffered saline, pH=7.4) for a period of 5 minutes. For the purpose of filling the artery, one end was clamped, the artery was held upright and a syringe was used to dispense the naphthalimide solution until the inner lumen was filled. The open end of the artery was then clamped and the soaking period of 5 minutes commenced. […] Arteries were cut open lengthwise and the treated section was evaluated by visual examination.
Prior to cutting the artery for visual examination samples from the treated and untreated sections were collected and preserved for histological examination. […] After this time, samples were stored in a −80° C. freezer until ready for further analysis. […] The crystalline nature of hard plaque is readily visible without staining. Under this magnification the crystalline structure of the calcific plaque was readily visible, as shown in FIG. 8 the dark area between the two lighter colored areas of the media. […]

degradation of dimer in powder form ([3]; periods exceeding two years of storage in a dessicator at −20° C.): no evidence of degradation
stability of dimer solution (excellent stability for periods up to) ([3]; solution at pH 7.4): up to 18 months
Compound: NCCOCCOCCN1C(=O)c2cccc3c(NCCOCCOCCNc4ccc5c6c(cccc46)C(=O)N(CCOCCOCCN)C5=O)ccc(c23)C1=O [compound of formula (V)]
relative hardness of plaque ([1]; after a 5 minute soak): slight softening
relative hardness of plaque ([1]; after an additional 90 minutes in solution): significantly softer and more pliable
repair of fissure ([2]; angioplasty, then composition, distal part with adequate photoactivation): there appeared to be a seam indicating repair
fissure in opened artery ([2]; composition 5 minutes, then angioplasty 25% overstretch, photoactivation 1800 mW 60 seconds): no fissure observed
observation of tacking of intimal flaps ([4]; 447 nm 625 mW/cm 60 seconds): tacking of intimal flaps
visual observation of plaque softness in treated region ([4]; 447 nm 625 mW/cm 60 seconds): apparent softened plaque in the treated region; also recorded: more malleable
calcium crystals under microscope, treated vs untreated sections ([4]; light activation): less evidence of calcium crystals
